Among the data in US20120245137A1 (Zalicus Pharmaceuticals Ltd., priority 2009, published 2012) are IC50 values, retold here.

The target of assay [1] is human α1G T-type channels (Homo sapiens, UniProt O43497). In words: T-type calcium channel block, whole cell patch clamp, α1G. The settings on record: HEK cells stably expressing human α1G; mainly non-inactivated protocol; values above 10,000 nM represented as 10000. It counts as cell-based. Here is the method: T-type calcium channel blocking activity was assayed in human embryonic kidneycells, HEK 293 (Invitrogen), stably transfected with the T-type calcium channel subunits. Briefly, cells were cultured in Dulbecco's modified eagle medium (DMEM) supplemented with 10% fetal bovine serum, 200 U/ml penicillin, and 0.2 mg/mL streptomycin at 37° C. with 5% CO2. At 85% confluency, cells were split with 0.25% trypsin/1 mM EDTA and plated at 10% confluency on glass coverslips. At 12 hours, the medium was replaced, and the cells stably transfected using a standard calcium phosphate protocol and the appropriate calcium channel cDNA's. Fresh DMEM was supplied, and the cells transferred to 28° C./5% CO2.
Standard patch-clamp techniques were employed to identify blockers of T-type currents. Briefly, previously described HEK cell lines stably expressing human α1G, α1H, and α1I T-type channels were used for all the recordings (passage #: 4-20, 37° C., 5% CO2). Whole cell patch clamp experiments were performed using an Axopatch 200B amplifier (Axon Instruments, Burlingame, Calif.) linked to a personal computer equipped with pCLAMP software. Data were analyzed using Clampfit (Axon Instruments) and SigmaPlot 4.0 (Jandel Scientific). To obtain T-type currents, plastic dishes containing semi-confluent cells were positioned on the stage of a ZEISS AXIOVERT S100 microscope after replacing the culture medium with external solution (Table 2). Whole-cell patches were obtained using pipettes (borosilicate glass with filament, O.D.: 1.5 mm, I.D.: 0.86 mm, 10 cm length), fabricated on a SUTTER P-97 puller with resistance values of ˜5 MΩ (Table 3).
T-type currents were reliably obtained by using two voltage protocols: • “non-inactivating,” and • “inactivation.”
Test compounds were dissolved in external solution, 0.1-0.01% DMSO. After ˜10 minutes rest, they were applied by gravity close to the cell using a WPI microfil tubing. The “non-inactivated” pre-pulse was used to examine the resting block of a compound. The “inactivated” protocol was employed to study voltage-dependent block.
In general terms: Patch clamp records ionic current or voltage across a cell membrane.

Assay [2] concerns the target N-type calcium channel subunits (α1B, α2δ, and β3a) (Homo sapiens, UniProt Q00975). In words: Block of Cav2.2 channel, whole cell voltage clamp, manual and PatchXpress. The settings on record: Table 5; table follows Assay Example 3 (whole cell voltage clamp / PatchXpress); assay not given. It counts as cell-based. Put shortly:
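Percent block taken as current amplitude ratio with versus without compound, applied in rising doses; IC50 fitted where one cell received multiple doses. Protocol: 50 ms pulses to +20 mV at 0.067 Hz from […] or −90 mV holding; P/n leak subtraction, no junction-potential correction; manual and PatchXpress recordings.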

In general, pIC50 refers to the negative decadic logarithm of the IC50, by convention in mol/L. Broadly, the IC50 is the midpoint of a concentration-inhibition curve.

pIC50: −log10 of the molar value.

Sequence of N-type calcium channel subunits (α1B, α2δ, and β3a) (Q00975 whole entry): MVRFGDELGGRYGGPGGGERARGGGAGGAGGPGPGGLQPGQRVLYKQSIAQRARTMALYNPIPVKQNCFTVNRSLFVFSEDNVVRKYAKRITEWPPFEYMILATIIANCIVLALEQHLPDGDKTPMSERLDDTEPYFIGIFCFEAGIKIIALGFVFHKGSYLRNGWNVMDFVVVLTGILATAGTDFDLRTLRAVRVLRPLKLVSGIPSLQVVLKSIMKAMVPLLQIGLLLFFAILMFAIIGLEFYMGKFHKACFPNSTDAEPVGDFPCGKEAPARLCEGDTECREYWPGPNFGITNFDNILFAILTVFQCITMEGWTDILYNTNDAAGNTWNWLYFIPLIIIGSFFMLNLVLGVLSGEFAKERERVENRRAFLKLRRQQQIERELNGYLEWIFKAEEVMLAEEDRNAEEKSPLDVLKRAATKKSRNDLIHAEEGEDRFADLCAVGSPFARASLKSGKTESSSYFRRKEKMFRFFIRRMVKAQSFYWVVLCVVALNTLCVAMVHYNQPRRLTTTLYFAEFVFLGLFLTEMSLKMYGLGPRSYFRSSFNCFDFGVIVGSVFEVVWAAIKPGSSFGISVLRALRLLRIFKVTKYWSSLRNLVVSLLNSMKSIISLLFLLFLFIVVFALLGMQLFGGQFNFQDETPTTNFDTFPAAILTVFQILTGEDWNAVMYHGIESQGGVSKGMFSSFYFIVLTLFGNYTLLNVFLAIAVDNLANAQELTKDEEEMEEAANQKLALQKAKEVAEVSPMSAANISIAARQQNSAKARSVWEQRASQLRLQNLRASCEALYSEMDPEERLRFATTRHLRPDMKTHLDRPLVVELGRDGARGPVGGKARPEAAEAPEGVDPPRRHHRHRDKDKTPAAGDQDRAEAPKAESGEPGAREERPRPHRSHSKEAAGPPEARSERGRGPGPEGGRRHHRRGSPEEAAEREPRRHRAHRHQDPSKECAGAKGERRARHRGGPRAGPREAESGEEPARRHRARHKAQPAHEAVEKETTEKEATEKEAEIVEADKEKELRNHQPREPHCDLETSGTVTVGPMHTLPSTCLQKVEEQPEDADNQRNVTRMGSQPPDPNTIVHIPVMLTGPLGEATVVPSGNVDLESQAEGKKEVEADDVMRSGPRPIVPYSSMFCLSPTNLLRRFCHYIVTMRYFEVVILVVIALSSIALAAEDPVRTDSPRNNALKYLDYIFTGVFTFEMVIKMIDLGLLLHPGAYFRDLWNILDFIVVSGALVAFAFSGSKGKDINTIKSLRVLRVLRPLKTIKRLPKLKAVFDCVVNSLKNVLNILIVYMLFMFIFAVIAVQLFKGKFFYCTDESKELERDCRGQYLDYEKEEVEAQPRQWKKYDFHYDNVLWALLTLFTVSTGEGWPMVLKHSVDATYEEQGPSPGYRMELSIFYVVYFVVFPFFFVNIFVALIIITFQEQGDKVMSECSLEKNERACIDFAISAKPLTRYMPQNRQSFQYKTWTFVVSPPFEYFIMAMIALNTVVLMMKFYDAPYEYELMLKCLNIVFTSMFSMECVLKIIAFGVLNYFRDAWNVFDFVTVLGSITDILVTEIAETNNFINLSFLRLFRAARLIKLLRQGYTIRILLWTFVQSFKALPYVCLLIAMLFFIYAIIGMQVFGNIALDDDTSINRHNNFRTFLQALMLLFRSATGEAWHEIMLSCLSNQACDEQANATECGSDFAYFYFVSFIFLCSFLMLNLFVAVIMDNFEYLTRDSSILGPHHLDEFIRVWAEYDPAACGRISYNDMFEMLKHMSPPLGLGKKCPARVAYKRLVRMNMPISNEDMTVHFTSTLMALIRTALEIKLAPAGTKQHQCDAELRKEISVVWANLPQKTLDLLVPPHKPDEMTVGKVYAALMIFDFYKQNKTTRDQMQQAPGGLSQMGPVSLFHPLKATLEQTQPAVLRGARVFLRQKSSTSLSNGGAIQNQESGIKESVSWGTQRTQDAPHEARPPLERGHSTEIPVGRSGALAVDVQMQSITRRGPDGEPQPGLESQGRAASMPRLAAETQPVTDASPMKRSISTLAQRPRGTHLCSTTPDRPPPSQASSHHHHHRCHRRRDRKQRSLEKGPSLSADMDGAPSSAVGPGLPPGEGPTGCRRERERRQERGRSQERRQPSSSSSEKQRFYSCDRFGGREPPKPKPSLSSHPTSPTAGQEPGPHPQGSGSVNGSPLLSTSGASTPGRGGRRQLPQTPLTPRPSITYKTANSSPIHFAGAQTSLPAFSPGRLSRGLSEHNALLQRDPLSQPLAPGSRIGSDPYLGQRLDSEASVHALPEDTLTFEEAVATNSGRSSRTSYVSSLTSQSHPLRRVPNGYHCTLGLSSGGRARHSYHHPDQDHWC
Sequence of N-type calcium channel subunits (α1B, α2δ, and β3a) (P54289 25-1103 partner): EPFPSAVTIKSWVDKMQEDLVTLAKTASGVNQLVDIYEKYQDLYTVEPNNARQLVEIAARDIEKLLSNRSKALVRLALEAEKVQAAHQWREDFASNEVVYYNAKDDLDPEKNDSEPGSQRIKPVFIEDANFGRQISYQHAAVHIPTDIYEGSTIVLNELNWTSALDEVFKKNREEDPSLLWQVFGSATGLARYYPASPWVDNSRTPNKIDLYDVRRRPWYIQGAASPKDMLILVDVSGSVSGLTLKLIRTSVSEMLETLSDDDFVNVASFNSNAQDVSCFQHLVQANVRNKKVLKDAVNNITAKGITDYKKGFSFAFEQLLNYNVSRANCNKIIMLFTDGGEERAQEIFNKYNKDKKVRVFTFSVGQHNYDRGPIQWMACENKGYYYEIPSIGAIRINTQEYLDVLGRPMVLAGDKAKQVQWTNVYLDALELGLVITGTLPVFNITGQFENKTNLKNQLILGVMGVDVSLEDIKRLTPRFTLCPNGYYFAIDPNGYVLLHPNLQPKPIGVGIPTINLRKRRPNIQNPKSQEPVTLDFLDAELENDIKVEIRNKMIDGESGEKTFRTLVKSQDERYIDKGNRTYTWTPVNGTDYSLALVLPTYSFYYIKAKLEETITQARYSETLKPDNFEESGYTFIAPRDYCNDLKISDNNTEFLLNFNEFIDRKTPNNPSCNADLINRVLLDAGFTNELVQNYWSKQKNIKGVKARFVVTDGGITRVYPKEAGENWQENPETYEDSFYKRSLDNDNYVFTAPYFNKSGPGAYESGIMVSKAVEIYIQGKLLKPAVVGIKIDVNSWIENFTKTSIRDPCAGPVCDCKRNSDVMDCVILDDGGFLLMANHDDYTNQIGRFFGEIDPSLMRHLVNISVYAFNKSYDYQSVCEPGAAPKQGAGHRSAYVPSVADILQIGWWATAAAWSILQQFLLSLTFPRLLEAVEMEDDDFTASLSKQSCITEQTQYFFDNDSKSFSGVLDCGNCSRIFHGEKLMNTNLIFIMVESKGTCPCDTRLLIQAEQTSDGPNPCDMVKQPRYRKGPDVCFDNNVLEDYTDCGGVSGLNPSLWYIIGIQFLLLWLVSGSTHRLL
Sequence of N-type calcium channel subunits (α1B, α2δ, and β3a) (P54284 whole entry partner): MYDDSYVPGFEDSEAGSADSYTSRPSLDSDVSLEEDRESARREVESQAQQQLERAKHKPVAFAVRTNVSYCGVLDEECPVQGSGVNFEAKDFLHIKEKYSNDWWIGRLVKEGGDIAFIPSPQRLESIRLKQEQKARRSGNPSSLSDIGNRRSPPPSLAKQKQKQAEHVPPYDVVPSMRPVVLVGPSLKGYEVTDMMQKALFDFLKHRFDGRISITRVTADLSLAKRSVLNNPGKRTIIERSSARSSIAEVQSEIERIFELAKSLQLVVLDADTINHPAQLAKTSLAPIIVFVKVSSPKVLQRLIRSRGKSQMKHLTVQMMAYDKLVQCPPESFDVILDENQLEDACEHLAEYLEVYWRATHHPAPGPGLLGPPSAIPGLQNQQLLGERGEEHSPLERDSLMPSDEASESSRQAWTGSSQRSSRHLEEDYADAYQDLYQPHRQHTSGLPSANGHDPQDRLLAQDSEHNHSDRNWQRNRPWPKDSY

As to `CC1(CNC(=O)c2ccc(C(F)(F)F)nc2)CCC(S(=O)(=O)c2cccc(C(F)(F)F)c2)CC1` (centres unmarked) [Compound 213, N-((1-methyl-4-(3-(trifluoromethyl)phenylsulfonyl)cyclohexyl)methyl)-6-(trifluoromethyl)nicotinamide], the pIC50 in assay [1] is 6.03. Besides, the IC50 in assay [2] was 620 nM.

For the molecule `CC1(CNC(=O)c2ccc(C(F)(F)F)cn2)CCC(F)(S(=O)(=O)c2cccc(C(F)(F)F)c2)CC1` (centres unmarked) [Compound 152, N-((4-fluoro-1-methyl-4-(3-(trifluoromethyl)phenylsulfonyl)cyclohexyl)methyl)-5-(trifluoromethyl)picolinamide], the pIC50 in assay [1] was 5.44. For the same molecule, the IC50 in assay [2] stood at 550 nM.

Consider `O=C(NC[C@]1(O)CC[C@@H](S(=O)(=O)c2cccc(C(F)(F)F)c2)CC1)c1cc(F)cc(Cl)c1` [Compound 228, 3-chloro-5-fluoro-N-(((1S,4S)-1-hydroxy-4-(3-(trifluoromethyl)phenylsulfonyl)cyclohexyl)methyl)benzamide], for which, in assay [1], the pIC50 was 6.48. Further, the IC50 in assay [2] was 740 nM.

Regarding `O=C(N[C@H]1CC[C@@](F)(S(=O)(=O)c2cccc(C(F)(F)F)c2)CC1)c1ccnn1CC(F)(F)F` [Compound 245, N-((1S,4S)-4-fluoro-4-(3-(trifluoromethyl)phenylsulfonyl)cyclohexyl)-1-(2,2,2-trifluoroethyl)-1H-pyrazole-5-carboxamide], in assay [1], the pIC50 was 5.42. For the same molecule, the IC50 in assay [2] turned out to be 130 nM.

Turning to `CC(C)(C)NC(=O)CNC[C@H]1C[C@H](S(=O)(=O)c2cccc(C(F)(F)F)c2)C1` [Compound 359, N-tert-butyl-2-(((1R,3R)-3-(3-(trifluoromethyl)phenylsulfonyl)cyclobutyl)methylamino)acetamide], the pIC50 in assay [1] is 5.27. Also, the half-inhibitory concentration (IC50) in assay [2] stood at 1610 nM.

As for `CN(CCC(C)(C)S(=O)(=O)c1cccc(C(F)(F)F)c1)C(=O)c1ccc(C(F)(F)F)nc1` [Compound 511, N-methyl-N-(3-methyl-3-(3-(trifluoromethyl)phenylsulfonyl)butyl)-6-(trifluoromethyl)nicotinamide], the pIC50 in assay [1] was 6.02.

Regarding `CC1(CNC(=O)c2cc(F)cc(Cl)c2)CCC(F)(S(=O)(=O)c2cccc(C(F)(F)F)c2)CC1` (centres unmarked) [Compound 154, 3-chloro-5-fluoro-N-((4-fluoro-1-methyl-4-(3-(trifluoromethyl)phenylsulfonyl)cyclohexyl)methyl)benzamide], in assay [1], the pIC50 was 5.44. In addition, in assay [2], the IC50 worked out at 450 nM.

Take `CC(C)(CNS(=O)(=O)c1cccc2nonc12)S(=O)(=O)c1cccc(C(F)(F)F)c1` [Compound 493]: the pIC50 in assay [1] was 6.17.

Take `O=C(NC[C@]1(O)CC[C@@H](S(=O)(=O)c2cccc(C(F)(F)F)c2)CC1)c1ccc(F)c(C(F)(F)F)c1` [Compound 234, 4-fluoro-N-(((1S,4S)-1-hydroxy-4-(3-(trifluoromethyl)phenylsulfonyl)cyclohexyl)methyl)-3-(trifluoromethyl)benzamide]: the pIC50 in assay [1] is 5.67. The IC50 in assay [2] was 870 nM.

For `CC(C)(CNS(=O)(=O)c1ccc(S(C)(=O)=O)cc1)S(=O)(=O)c1cccc(C(F)(F)F)c1` [Compound 497, N-(2-methyl-2-(3-(trifluoromethyl)phenylsulfonyl)propyl)-4-(methylsulfonyl) benzenesulfonamide], the pIC50 in assay [1] was 6.28.

With `COc1cc(C(=O)N[C@H]2CC[C@@](F)(S(=O)(=O)c3cccc(C(F)(F)F)c3)CC2)cc(Cl)n1` [Compound 242, 2-chloro-N-((1S,4S)-4-fluoro-4-(3-(trifluoromethyl)phenylsulfonyl)cyclohexyl)-6-methoxyisonicotinamide], in assay [1], the pIC50 was 5.37. The concentration for half-maximal inhibition (IC50) in assay [2] was 110 nM.

Turning to `CN(CC(=O)N[C@H]1CC[C@H](CS(=O)(=O)c2cccc(C(F)(F)F)c2)CC1)C1CCCCC1` [Compound 163], in assay [1], the pIC50 was < 5.00. Also, the IC50 in assay [2] is 470 nM.

Turning to `CN(CCC(C)(C)S(=O)(=O)c1cccc(C(F)(F)F)c1)C(=O)c1ccc(C(F)(F)F)cn1` [Compound 515, N-methyl-N-(3-methyl-3-(3-(trifluoromethyl)phenylsulfonyl)bulyl)-5-(trifluoromethyl)picolinamide], the pIC50 in assay [1] is 6.21.

Turning to `O=S(=O)(N[C@H]1CC[C@@](F)(S(=O)(=O)c2cccc(C(F)(F)F)c2)CC1)c1ccc(C(F)(F)F)cc1` [Compound 301, N-((1S,4S)-4-fluoro-4-(3-(trifluoromethyl)phenylsulfonyl)cyclohexyl)-4-(trifluoromethyl) benzenesulfonamide], the pIC50 in assay [1] is < 5.00. Also, the IC50 in assay [2] came out at 530 nM.

Regarding `CC1(CNC(=O)c2ccc(F)c(Cl)c2)CCC(F)(S(=O)(=O)c2cccc(C(F)(F)F)c2)CC1` (centres unmarked) [Compound 153, 3-chloro-4-fluoro-N-((4-fluoro-1-methyl-4-(3-(trifluoromethyl)phenylsulfonyl)cyclohexyl)methyl)benzamide], in assay [1], the pIC50 was 5.28. In addition, the IC50 in assay [2] stood at 500 nM.

As to `O=C(N[C@H]1CC[C@@](F)(S(=O)(=O)c2cccc(C(F)(F)F)c2)CC1)c1ccnc(C(F)(F)F)c1` [Compound 246], the pIC50 in assay [1] was 5.76. Besides, in assay [2], the IC50 is 130 nM.

Turning to `CS(=O)(=O)c1cc(C(F)(F)F)ccc1C(=O)N[C@H]1CC[C@@](F)(S(=O)(=O)c2cccc(C(F)(F)F)c2)CC1` [Compound 239, N-((1S,4S)-4-fluoro-4-(3-(trifluoromethyl)phenylsulfonyl)cyclohexyl)-2-(methylsulfonyl)-4-(trifluoromethyl)benzamide], the pIC50 in assay [1] was 5.79. The IC50 in assay [2] worked out at 340 nM.

For the molecule “4-(trifluoromethyl)-N-((1R,4R)-4- ((3- (trifluoromethyl)phenylsulfonyl) methyl)cyclohexyl)picolinamide [Compound 103]”, in assay [1], the pIC50 is < 5.00. Besides, the IC50 in assay [2] was determined as 460 nM.

As to `Cn1nc(C(F)(F)F)cc1C(=O)NCC1(C)CCC(F)(S(=O)(=O)c2cccc(C(F)(F)F)c2)CC1` (stereo not drawn) [Compound 151, N-((4-fluoro-1-methyl-4-(3-(trifluoromethyl)phenylsulfonyl)cyclohexyl)methyl)-l-methyl-3-(trifluoromethyl)-1H-pyrazole-5-carboxamide], the pIC50 in assay [1] was 5.54. In addition, in assay [2], the IC50 is 580 nM.

In the case of `O=C(Nc1ccc(Oc2ccc(F)cc2)nc1)[C@H]1C[C@H](S(=O)(=O)c2cccc(C(F)(F)F)c2)C1` [Compound 405, (1R,3R)-N-(6-(4-fluorophenoxy)pyridin-3-yl)-3-(3-(trifluoromethyl)phenylsulfonyl)cyclobutane carboxamide], the pIC50 in assay [1] is < 5.00. The half-inhibitory concentration (IC50) in assay [2] was 1300 nM.

Consider `Cn1nc(C(F)(F)F)cc1C(=O)N[C@H]1CC[C@@](F)(S(=O)(=O)c2cccc(C(F)(F)F)c2)CC1` [Compound 241, N-((1S,4S)-4-fluoro-4-(3-(trifluoromethyl)phenylsulfonyl)cyclohexyl)-1-methyl-3-(trifluoromethyl)-1H-pyrazole-5-carboxamide], for which, in assay [1], the pIC50 was 5.84. In assay [2], the IC50 was determined as 130 nM.

For the molecule `Cc1cc(C(=O)N[C@H]2CC[C@@](F)(S(=O)(=O)c3cccc(C(F)(F)F)c3)CC2)c(C(F)(F)F)o1` [Compound 243], in assay [1], the pIC50 was 5.35. Further, the concentration for half-maximal inhibition (IC50) in assay [2] worked out at 60 nM.

As to `CC(C)(CCNC(=O)c1cc(S(C)(=O)=O)ccc1Cl)S(=O)(=O)c1cccc(C(F)(F)F)c1` [Compound 530, 2-chloro-N-(3-methyl-3-(3-(trifluoromethyl)phenylsulfonyl)butyl)-5-(methylsulfonyl)benzamide], the pIC50 in assay [1] is 6.03.
